{
  "source": "paper PMC10603899",
  "about": "“Reproducibility and Robustness of a Liver Microphysiological System PhysioMimix LC12 under Varying Culture Conditions and Cell Type Combinations” (Bioengineering, 2023)",
  "key": {"PHH (various donors) [1]": {"system": "PHH (various donors)", "set-up": "method as in PMID 27338863", "conditions": "Suspension, day 0 of culture, incubation 0.17 h; cited from earlier work"}, "PHH (various donors) [2]": {"system": "PHH (various donors)", "set-up": "method as in PMID 25068923", "conditions": "LiverChip, day 4 of culture, estimated from figures, cited from earlier work"}, "PHH (TF-HU8373) + THP-1": {"system": "PHH (TF-HU8373) + THP-1", "experiment": "Midazolam metabolism (1′-OH MDZ formation) in 96-well plate, PHH + THP-1", "type": "in vitro ADME, human", "conditions": "PHH + THP-1, day 2, incubation 24 h"}, "PHH (TF-HU8373) [3]": {"system": "PHH (TF-HU8373)", "experiment": "Midazolam metabolism (1′-OH MDZ formation) in 96-well plate, PHH", "type": "in vitro ADME, human", "conditions": "day 2, incubation 24 h", "procedure": "For the PHH 2D model, 96-well plates were first coated with 200 μg/mL collagen I (CB354249, Corning Inc.) and 50 μg/mL fibronectin (F1141, Sigma-Aldrich, St. Louis, MO, USA) and incubated at 37 °C, 5% CO2 for 1 h. Thawed PHHs were collected by centrifugation (100× g, 10 min), resuspended in plating media, and seeded at a density of 50,000–60,000 cells/well. After incubation overnight, the media were changed to maintenance media. The total well volume was 100 μL, and plates were incubated at 37 °C, 5% CO2, with media refreshed every 1–2 days.\nAfter drug addition, media were collected every 2, 6, and 24 h. After 24 h, the drug treatment media were replaced with fresh maintenance media. For the experiment with pesticide mixtures, we selected chemicals from the Agency for Toxic Substances and Disease Registry Substance Priority List, which contains compounds that are commonly detected at Superfund sites and are known to be hazardous to human health. A molar-equivalent mixture was created by combining all 20 pesticides and diluting them to a final concentration of 1 or 5 μM each in dimethyl sulfoxide (DMSO, final concentration 0.5% v/v). Media was collected 48 h after treatment for the analyses detailed below. […]"}, "PHH (TF-HU8373) [4]": {"system": "PHH (TF-HU8373)", "experiment": "Midazolam metabolism (1′-OH MDZ formation) in PhysioMimix LC-12, PHH monoculture", "conditions": "PhysioMimix LC-12, PHH, 5 µM MDZ"}},
  "note": "Read-outs that look alike come from different tables or passages of the source.",
  "data": [
    {"molecule": "OCc1ncc2n1-c1ccc(Cl)cc1C(c1ccccc1F)=NC2", "note": "[1′-OH-midazolam, 1-hydroxymidazolam]", "values": [
      {"measurement": "1′-OH MDZ Formed, Mean ± S.D.", "setting": "PHH (various donors) [1]", "result": "100 ± 106", "unit": "pmol/min/1 M Hep."},
      {"measurement": "1′-OH MDZ Formed, Median", "setting": "PHH (various donors) [1]", "result": 63.7, "unit": "pmol/min/1 M Hep."},
      {"measurement": "1′-OH MDZ Formed, Mean ± S.D.", "setting": "PHH (various donors) [2]; incubation 2 h", "result": "4.55 ± 2.27", "unit": "pmol/min/1 M Hep."},
      {"measurement": "1′-OH MDZ Formed, Mean ± S.D.", "setting": "PHH (various donors) [2]; incubation 24 h", "result": "0.216 ± 0.054", "unit": "pmol/min/1 M Hep."},
      {"measurement": "1′-OH MDZ Formed, Mean ± S.D.", "setting": "PHH (TF-HU8373) + THP-1", "result": "0.088 ± 0.077", "unit": "pmol/min/1 M Hep."},
      {"measurement": "1′-OH MDZ Formed, Median", "setting": "PHH (TF-HU8373) + THP-1", "result": 0.061, "unit": "pmol/min/1 M Hep."},
      {"measurement": "1′-OH MDZ Formed, Mean ± S.D.", "setting": "PHH (TF-HU8373) [3]", "result": "0.163 ± 0.064", "unit": "pmol/min/1 M Hep."},
      {"measurement": "1′-OH MDZ Formed, Median", "setting": "PHH (TF-HU8373) [3]", "result": 0.189, "unit": "pmol/min/1 M Hep."},
      {"measurement": "1′-OH MDZ Formed, Mean ± S.D.", "setting": "PHH (TF-HU8373) [4]; day 6, incubation 2 h", "result": "2.72 ± 1.75", "unit": "pmol/min/1 M Hep."},
      {"measurement": "1′-OH MDZ Formed, Median", "setting": "PHH (TF-HU8373) [4]; day 6, incubation 2 h", "result": 2.33, "unit": "pmol/min/1 M Hep."},
      {"measurement": "1′-OH MDZ Formed, Mean ± S.D.", "setting": "PHH (TF-HU8373) [4]; day 6, incubation 24 h", "result": "0.610 ± 0.403", "unit": "pmol/min/1 M Hep."},
      {"measurement": "1′-OH MDZ Formed, Median", "setting": "PHH (TF-HU8373) [4]; day 6, incubation 24 h", "result": 0.561, "unit": "pmol/min/1 M Hep."},
      {"measurement": "1′-OH MDZ Formed, Mean ± S.D.", "setting": "PHH (TF-HU8373) [4]; day 12, incubation 24 h", "result": "0.753 ± 0.612", "unit": "pmol/min/1 M Hep."},
      {"measurement": "1′-OH MDZ Formed, Median", "setting": "PHH (TF-HU8373) [4]; day 12, incubation 24 h", "result": 0.649, "unit": "pmol/min/1 M Hep."}
    ]}
  ]
}
